From ChEMBL document CHEMBL1201862, “PubChem BioAssay data set” (2004)
Values belong to the compound of their own block, whether it stands above or below them. Active and inactive are the calls of the source.

Columns and labels:
Format in all cases: functional
Cannabinoid receptor 2 [1] = target: T1, Cannabinoid receptor 2 (Homo sapiens, UniProt P34972); experiment: SAR analysis of antagonists of the Cannabinoid Receptor 2 using an Image-Based Assay - Set 2. [Related pubchem assays (depositor defined):AID1961, AID1965]
T1 sequence (P34972 whole entry): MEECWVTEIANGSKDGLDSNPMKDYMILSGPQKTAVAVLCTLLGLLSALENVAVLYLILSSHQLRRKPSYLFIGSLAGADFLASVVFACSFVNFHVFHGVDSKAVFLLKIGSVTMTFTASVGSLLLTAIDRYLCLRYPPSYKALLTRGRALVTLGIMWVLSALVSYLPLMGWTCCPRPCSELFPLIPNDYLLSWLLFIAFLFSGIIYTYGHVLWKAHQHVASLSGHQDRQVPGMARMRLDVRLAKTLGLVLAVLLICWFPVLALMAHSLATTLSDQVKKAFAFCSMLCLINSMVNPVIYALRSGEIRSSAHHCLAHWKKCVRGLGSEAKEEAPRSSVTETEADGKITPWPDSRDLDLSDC

[2] = target: G-protein coupled receptor 55 (Homo sapiens, UniProt Q9Y2T6); experiment: SAR analysis of selective Agonists of GPR55 using an Image-Based Assay - Set 2. [Related pubchem assays (depositor defined):AID1961, AID1965]
Sequence of G-protein coupled receptor 55 (Q9Y2T6 whole entry): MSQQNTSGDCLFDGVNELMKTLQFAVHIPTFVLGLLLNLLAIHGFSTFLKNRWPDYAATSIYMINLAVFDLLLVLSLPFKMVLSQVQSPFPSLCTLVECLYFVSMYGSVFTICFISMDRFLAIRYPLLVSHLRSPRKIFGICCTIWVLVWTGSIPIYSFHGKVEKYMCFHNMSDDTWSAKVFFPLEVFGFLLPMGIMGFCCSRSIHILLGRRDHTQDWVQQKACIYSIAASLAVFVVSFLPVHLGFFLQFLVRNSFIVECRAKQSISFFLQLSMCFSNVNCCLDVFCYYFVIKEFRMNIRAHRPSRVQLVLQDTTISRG

Cannabinoid receptor 2 [3] = target: T1, Cannabinoid receptor 2; experiment: SAR analysis of agonists of the Cannabinoid Receptor 2 using an Image-Based Assay - Set 2. [Related pubchem assays (depositor defined):AID1961, AID1965]
[4] = target: T2, G-protein coupled receptor 35 (Homo sapiens, UniProt Q9HC97); experiment: SAR analysis of Agonists of the GPR35 Receptor using an Image-Based Assay - Set 3. [Related pubchem assays (depositor defined):AID1961, AID1965]
T2 sequence (Q9HC97 whole entry): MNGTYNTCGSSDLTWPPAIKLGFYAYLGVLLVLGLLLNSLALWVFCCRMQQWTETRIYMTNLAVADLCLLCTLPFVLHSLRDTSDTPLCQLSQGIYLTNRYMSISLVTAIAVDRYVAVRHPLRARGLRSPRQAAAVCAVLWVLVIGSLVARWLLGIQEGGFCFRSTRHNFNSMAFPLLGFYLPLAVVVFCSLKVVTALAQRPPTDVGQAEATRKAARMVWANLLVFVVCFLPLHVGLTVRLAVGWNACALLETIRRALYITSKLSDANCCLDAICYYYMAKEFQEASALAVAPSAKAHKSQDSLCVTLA

Cannabinoid receptor 1 [5] = target: T3, Cannabinoid receptor 1 (Homo sapiens, UniProt P21554); experiment: SAR analysis of antagonists of the Cannabinoid Receptor 1 using an Image-Based Assay - Set 3. [Related pubchem assays (depositor defined):AID1961, AID1965]
T3 sequence (P21554 whole entry): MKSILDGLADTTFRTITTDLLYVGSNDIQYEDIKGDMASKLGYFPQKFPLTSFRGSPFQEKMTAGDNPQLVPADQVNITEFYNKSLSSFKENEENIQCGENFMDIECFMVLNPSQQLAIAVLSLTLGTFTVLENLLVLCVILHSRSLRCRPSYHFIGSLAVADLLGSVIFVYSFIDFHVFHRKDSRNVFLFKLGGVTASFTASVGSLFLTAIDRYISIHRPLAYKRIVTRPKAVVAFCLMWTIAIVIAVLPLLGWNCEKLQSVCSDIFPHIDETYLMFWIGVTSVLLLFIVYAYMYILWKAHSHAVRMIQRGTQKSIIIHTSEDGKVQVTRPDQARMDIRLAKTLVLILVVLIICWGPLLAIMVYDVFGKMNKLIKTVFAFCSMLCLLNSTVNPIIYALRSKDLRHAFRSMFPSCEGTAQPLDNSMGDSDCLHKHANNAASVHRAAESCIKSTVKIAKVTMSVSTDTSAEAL

Cannabinoid receptor 1 [6] = target: T3, Cannabinoid receptor 1; experiment: SAR analysis of agonists of the Cannabinoid Receptor 1 using an Image-Based Assay - Set 3. [Related pubchem assays (depositor defined):AID1961, AID1965]
[7] = target: T2, G-protein coupled receptor 35; experiment: SAR analysis of Antagonists of the GPR35 Receptor using an Image-Based Assay - Set 4. [Related pubchem assays (depositor defined):[…]]
[8] = target: T4, Kappa-type opioid receptor (Homo sapiens, UniProt P41145); experiment: KOR agonist analogs, arrestin-GFP redistribution, SAR follow-up, imaging, image-based, set 3 (AID 488833)
T4 sequence (P41145 whole entry): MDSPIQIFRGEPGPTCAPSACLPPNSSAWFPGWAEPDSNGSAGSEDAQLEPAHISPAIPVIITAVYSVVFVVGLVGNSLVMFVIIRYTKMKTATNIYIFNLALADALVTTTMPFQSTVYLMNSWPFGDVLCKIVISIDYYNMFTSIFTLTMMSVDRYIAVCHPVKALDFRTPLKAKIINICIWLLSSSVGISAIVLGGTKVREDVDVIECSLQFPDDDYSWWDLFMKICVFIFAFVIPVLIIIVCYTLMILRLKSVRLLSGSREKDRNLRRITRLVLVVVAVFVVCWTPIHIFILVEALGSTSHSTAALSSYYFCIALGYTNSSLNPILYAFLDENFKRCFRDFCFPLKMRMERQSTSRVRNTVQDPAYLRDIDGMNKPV

Mu-type opioid receptor = Mu-type opioid receptor (Homo sapiens, UniProt P35372); experiment: SAR Analysis of Agonists of the MOR Receptor using an Image-Based Assay - Set 3. [Related pubchem assays (depositor defined):AID1777, AID1785, AID1786, AID1966, AID2133, AID2136, AID2284, AID2285, AID2352]
Sequence of Mu-type opioid receptor (P35372 whole entry): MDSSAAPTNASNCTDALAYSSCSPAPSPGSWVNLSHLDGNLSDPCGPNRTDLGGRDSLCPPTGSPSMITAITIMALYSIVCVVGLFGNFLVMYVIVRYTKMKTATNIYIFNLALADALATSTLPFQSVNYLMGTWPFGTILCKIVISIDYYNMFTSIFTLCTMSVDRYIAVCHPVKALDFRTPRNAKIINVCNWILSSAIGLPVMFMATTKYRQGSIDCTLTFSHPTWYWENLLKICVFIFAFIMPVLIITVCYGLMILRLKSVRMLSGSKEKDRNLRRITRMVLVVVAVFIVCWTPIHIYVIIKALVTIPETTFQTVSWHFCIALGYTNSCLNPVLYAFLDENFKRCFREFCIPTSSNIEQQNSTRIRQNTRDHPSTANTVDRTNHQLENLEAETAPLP

[9] = target: Delta-type opioid receptor (Homo sapiens, UniProt P41143); experiment: SAR Analysis of Agonists of the DOR Receptor using an Image-Based Assay - Set 3. [Related pubchem assays (depositor defined):AID1777, AID1786]
Sequence of Delta-type opioid receptor (P41143 whole entry): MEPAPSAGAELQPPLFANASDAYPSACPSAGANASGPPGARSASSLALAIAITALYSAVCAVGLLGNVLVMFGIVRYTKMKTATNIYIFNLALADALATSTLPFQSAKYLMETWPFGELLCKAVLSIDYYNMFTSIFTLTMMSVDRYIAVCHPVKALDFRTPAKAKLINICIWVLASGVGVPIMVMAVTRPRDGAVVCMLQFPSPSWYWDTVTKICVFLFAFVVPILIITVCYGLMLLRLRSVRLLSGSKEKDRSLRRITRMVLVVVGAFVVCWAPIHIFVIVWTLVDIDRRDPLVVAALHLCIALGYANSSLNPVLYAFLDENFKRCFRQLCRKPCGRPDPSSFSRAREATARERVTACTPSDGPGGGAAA

[10] = target: T4, Kappa-type opioid receptor; experiment: SAR analysis of small molecule agonists of the kappa opioid receptor via a luminescent beta-arrestin assay - Set 3. [Related pubchem assays (depositor defined):AID1777, AID1785, AID1786, AID1966, AID2133, AID2136, AID2284, AID2500]
[11] = target: T5, Sphingosine 1-phosphate receptor 4 (Homo sapiens, UniProt O95977); experiment: Late-stage fluorescence dose response cell-based assay to identify agonists of the Sphingosine 1-Phosphate Receptor 4 (S1P4): purchased compounds EC50. [Related pubchem assays (depositor defined):AID1509, AID1523, AID1563, AID1686, AID1701, AID1801]
T5 sequence (O95977 whole entry): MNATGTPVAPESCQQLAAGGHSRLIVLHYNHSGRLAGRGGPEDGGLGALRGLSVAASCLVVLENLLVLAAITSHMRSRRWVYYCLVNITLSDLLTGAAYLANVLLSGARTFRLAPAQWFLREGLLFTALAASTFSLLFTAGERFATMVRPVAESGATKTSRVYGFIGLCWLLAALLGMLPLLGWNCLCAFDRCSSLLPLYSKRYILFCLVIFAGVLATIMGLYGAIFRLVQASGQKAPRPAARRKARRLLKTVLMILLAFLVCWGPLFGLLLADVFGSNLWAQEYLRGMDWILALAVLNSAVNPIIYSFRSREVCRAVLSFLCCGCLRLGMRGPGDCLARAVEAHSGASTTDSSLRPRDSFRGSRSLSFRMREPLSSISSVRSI

IC50 (Cannabinoid receptor 2 [1]): > 32 µM (inactive) | EC50 [2]: 11.5 µM (inactive) | EC50 (Cannabinoid receptor 2 [3]): > 32 µM (inactive) | EC50 [4]: > 32 µM (inactive) | IC50 (Cannabinoid receptor 1 [5]): > 32 µM (inactive) | EC50 (Cannabinoid receptor 1 [6]): > 32 µM (inactive) | IC50 [7]: > 32 µM (inactive)
SMILES: Cc1ccc(-c2csc(NC(=O)CSc3nnc4cc(C)c5ccccc5n34)n2)cc1

EC50 [8]: 12.2 µM (inactive) | EC50 (Mu-type opioid receptor): > 32 µM (inactive) | EC50 [9]: > 32 µM (inactive) | EC50 [10]: 8.72 µM (active)
SMILES: COc1cccc(CSc2nnc(-c3ccccn3)n2Cc2cccs2)c1

EC50 [11]: > 50 µM (inactive)
SMILES: Cc1ccc(OCC(=O)Nc2cccc(Cl)c2)c([N+](=O)[O-])n1
